Laboratory results: patent US20260242390A1, “TOTAL SYNTHESES OF PORTIMINE A AND ANALOGUES THEREOF AS SMALL MOLECULE MODULATORS OF NMD3” (priority 2023, published 2026)
Entries after “also recorded” stand apart in the source; their conditions may differ. Like-named read-outs stand apart in the source and are kept apart here.

Tested on: Jurkat cells
Test: Cell viability / toxicity in Jurkat cells
Format: cell-based, human
Details: for IC50: Homo sapiens, read-out: IC50 to Jurkat cells; for cell toxicity in leukemia (Jurkat) cancer cell line: 36-hour treatment; for toxicity to Jurkat cells: pM-nM concentration range (0.23 pM to 1 uM), 12 hr
Source text: FIG. 1. Portimine A is non-toxic to primary human PBMCs. Portimine A and its functional analogs show stereo-selective acute toxicity in cancer cells. […] (B) Structure of portimine related analogs: phenyl-portimine A (Ph-PA, 36) and epi-portimine A (ePA, 38). Structure of fully functionalized portimine A-based epimeric probe pair: portimine A-diazirine-alkyne (PA-DA, 35-2) and epi-portimine A-diazirine-alkyne (ePA-DA, 35-1). (C) Cell viability analysis of portimine A and analogs. […] All presented data as mean of biological replicated experiments (n=3). […]
Structurally related negative control ePA and PB are non-toxic in all cell types in the current concentrate range. PBMCs (25k per well), Jurkat (10k per well). […]
• 1) Portimine A and its functional analogs show stereo-selective acute toxicity in cancer cells (FIG. 1). […] (B) Structure of portimine related analogs: phenyl-portimine A (Ph-PA, 36) and epi-portimine A (ePA, 38). Structure of fully functionalized portimine A-based epimeric probe pair: portimine A-diazirine-alkyne (PA-DA, 35-2) and epi-portimine A-diazirine-alkyne (ePA-DA, 35-1). (C) Cell viability analysis of portimine A and analogs. […] All presented data as mean of biological replicated experiments (n=3). […] Structurally related negative control ePA and PB are non-toxic in all cell types in the current concentrate range. PBMCs (25k per well), Jurkat (10k per well). […] Cell cycle analysis in Jurkat cells (FIG. 2). […] (A) PA and Ph-PA show less toxic to healthy PBMCs compared to Jurkat cells. […] (B) Immunoblot of caspase-3 in Jurkat and PBMCs with indicated conditions. […] (A) Pharmacokinetic studies of mouse intraperitoneal (i.p.) and oral (p.o.) administration for portimine (n=3). […] Impact of PA [0.3 or 1 mg/kg intraperitoneally] on MC38 tumor growth in WT mice (n=6). (C) Kaplan-Myer survival curve of WT MC38 tumor-bearing mice (n=6) after treatment with PA as described in (D). Mice were euthanized when tumor area exceeded 2000 mm^3. Statistical analysis was performed using ANOVA analysis followed by multiple comparisons test, * p≤0.05. Treatment condition: Jurkat (60 M per condition); PA-DA/ePA-DA concentration: 0.5 uM, PA or ePA: 5 uM; Incubate with probe with or without competitors (PA, ePA) for 30 min; UV irradiated for 20 min. (0.5 uM PA-DA add a no-UV condition), Standard pulldown & biotin-enrichment and western blot analysis (Elute condition: 2× sample buffer+500 uM biotin, boil for 20 mins); Primary antibody NMD3 (ProteinTech, 1:150), Actin (BioRad, 1:10000). […] Chemical proteomic profiling with PA-DA in Jurkat cells (A, B, C, G) and HCC1806 cells (D, E, F, H) show NMD3 is the primary target candidate of portimine A. […] (I, J) Confirmation of PA-DA engagement of NMD3 in Jurkat and HCC1806 cells. […] Treatment condition: Jurkat (5M per well). Portimine A concentration: 2 nM-1000 nM; In total treat cell for 12 hours. […] Protein degradation of p53, Mcl1, Bid, Bim, Noxa can be rescued by MG132 or Epoxomicin. (B) NMD3 mRNA increased after PA treatment, but not ePA control compound. […] (A) Immunoblot showing reduced NMD3 levels in shNMD3 Jurkat and HeLa cells. […] Data represents mean±SD of biologically replicated experiments (n=3). […] Cell lysates were fractionated by sucrose gradient (5-50%) and each fraction were analyzed by western blot. eIF6 levels increase in 60S subunit fraction and decrease in ribosome-free fractions after PA treatment. RPS6, a 40S and polysome subunits marker, is decreased in polysome fractions after PA treatment. Results are representative of three independent experiments. […] Relative protein levels in each fraction were normalized to the peak fraction of the indicated protein from the DMSO cells and plotted. Data represents mean±SD of biologically replicated experiments (n=3). Statistical analysis was performed using multiple unpaired Student t-test. * p≤0.05; ** p≤0.01; *** p≤0.005; **** p≤0.0001. […]

| SMILES | IC50 (Jurkat, 12 h) [nM] | cell toxicity in leukemia (Jurkat) cancer cell line | toxicity to Jurkat cells | IC50 (after 12 hr, Jurkat 10k per well, 0.23 pM to 1 uM) [nM] |
| --- | --- | --- | --- | --- |
| C=CC1=C[C@@H]2[C@@H]3O[C@]4(CC[C@H](O4)C(C)C[C@@H](O)C3=O)CC(O)C3=NCC[C@@]32CC1 (stereo partly drawn) [PA, portimine A] | ~2 |  |  |  |
| C=CC1=C[C@@H]2[C@@H]3OC4(CC[C@H](O4)C(C)C[C@@H](O)C3=O)CC(=O)C3=NCC[C@@]32CC1 (stereo partly drawn) [PB, portimine B] |  | minimal effects | non-toxic; also recorded: non-toxicity |  |
| CC1C[C@@H](O)C(=O)[C@H]2O[C@]3(CC[C@@H]1O3)CC(O)C1=NCC[C@@]13CCC(c1ccccc1)=C[C@H]23 (stereo partly drawn) [Ph-PA, phenyl-portimine A] |  |  |  | ~2 |
| C=CC1=C[C@@H]2[C@@H]3O[C@]4(CC[C@H](O4)C(C)C[C@@H](O)C3=O)C[C@@H](O)C3=NCC[C@@]32CC1 (stereo partly drawn) [ePA, epi-portimine A] |  | minimal effects | non-toxic; also recorded: non-toxicity |  |
